In patent US20220249343A1, “COSMETIC COMPOSITION INCLUDING 5-BENZYLAMINOSALICYLIC ACID DERIVATIVE, AND TOPICAL USE THEREOF” (GNT PHARMA CO., LTD., priority 2019, published 2022):

Test system: human skin
Assay: Safety assessment for human skin: patch test
Format: in vivo
Settings: human volunteers
Description: Safety of Compound 2 was assessed by a patch test of 33 human volunteers. At this time, a patch treated with a composition containing 0.0544 mg/ml of compound 2 was attached to the test site, after 24 hours, the patch was removed and the location was marked. After 1 hour, a degree of reactivity was determined and recorded.
The skin reactivity was calculated by multiplying the average of evaluated values for 33 subjects by 25, while the skin irritation index was determined by dividing the above calculated value by the number of evaluations.
The degree of skin irritation of the test substance was determined with reference to the skin irritation index table (Table 1).

SMILES: O=C(O)c1cc(NCCc2ccc(C(F)(F)F)cc2)ccc1O [Compound 2]
- adverse skin reactions during the period of use: no reports of specific adverse skin reactions
- findings on physical examination by a dermatologist: no abnormal findings were observed
